According to patent USRE48461E1, “Modulation of androgen receptor expression” (Ionis Pharmaceuticals, Inc., priority 2012, dated 2021):
Oligonucleotides are written 5' to 3', each unit as a sugar letter and its base; * is a phosphorothioate linkage, no mark a phosphodiester; rarer units and linkages stand in square brackets, end groups in braces. Plain capitals give the bases only. k = constrained ethyl (cEt); d = 2'-deoxy (DNA)

Key:
[1] = tested on: AR mRNA; assay: Dose-dependent antisense inhibition of human AR in HuVEC cells (electroporation, qRT-PCR RTS3559, IC50); assay type: cell-based
Procedure, shortened: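 HuVEC cells dosed with antisense oligonucleotides by electroporation and treated approximately 16 hours. AR mRNA quantified by real-time qPCR with primer probe set RTS3559 and normalised to total RNA by RIBOGREEN; IC50 from dose-response.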

[2] = tested on: AR mRNA; assay: AR mRNA in LnCaP cells by free uptake (hAR_LTS00943); assay type: cell-based, human; details: 24 hrs
Method: Cells were plated at a concentration of 4,000 cells/well in 96-well plates. ISIS oligonucleotides, specified in Table 68, were added individually at 0.02 μM, 0.10 μM, 0.50 μM, 2.50 μM, or 10.00 μM. After an incubation period of 24 hrs, mRNA levels were measured using primer probe set hAR_LTS00943.

[3] = tested on: AR mRNA; assay: AR mRNA in C4-2B cells by free uptake (hAR_LTS00943); assay type: cell-based, human; details: 24 hrs; for Percent inhibition of AR full-length mRNA: free uptake
Method: (§1) Cells were plated at a concentration of 1,000 cells/well in 96-well plates to measure cell proliferation, and at 4,000 cells/well to measure target reduction. ISIS 549458, ISIS 549372, ISIS 549434, and ISIS 554221 were added individually at 0.04 μM, 0.20 μM, 1.00 μM, or 5.00 μM. After an incubation period of 24 hrs, mRNA levels were measured using hAR_LTS00943.

[4] = tested on: C4-2B cells; assay: C4-2B cell proliferation by free uptake (MTT); assay type: cell-based, human; details: day 6
Method: as §1
On day 6, cells plated for measuring proliferation were incubated with MTT reagent until the development of color. Color intensity was measured using a spectrophotometer at 490 nm.

[5] = tested on: AR mRNA; assay: AR mRNA expression in MDA-MB-453 breast cancer orthotopic model; assay type: in vivo, human; details: Study 2; tumor tissue, normalized to human actin; 50 mg/kg s.c. 5 days per week for 2 weeks
[6] = Hematological parameters in cynomolgus monkeys; details: cynomolgus monkey, 40 mg/kg s.c., day 44
[7] = Plasma BUN and creatinine in cynomolgus monkeys; details: cynomolgus monkey, 40 mg/kg s.c., day 44
Method: Prior to the study, the monkeys were kept in quarantine for a 30-day period, during which the animals were observed daily for general health. The monkeys were 2-4 years old and weighed between 2 and 4 kg. Thirteen groups of four randomly assigned male cynomolgus monkeys each were injected subcutaneously with ISIS oligonucleotide or PBS. PBS solution or ISIS oligonucleotides, at a dose of 40 mg/kg, were administered with a loading regimen consisting of four doses on the first week of the study (days 1, 3, 5, and 7), followed by a maintenance regimen consisting of once weekly administration starting on Day 14 (weeks 2 to 6). Subcutaneous injections were performed in clock-wise rotations at 4 sites on the back; one site per dose. The injection sites were delineated by tattoo, while sedated using ketamine, and were separated by a minimum of 3 cm.
To evaluate the effect of ISIS oligonucleotides on kidney function, the monkeys were fasted overnight. Approximately, 1.5 mL of blood samples were collected from all the study groups on day 44. Blood was collected in tubes without anticoagulant for serum separation. The tubes were kept at room temperature for a minimum of 90 min and then centrifuged at 3,000 rpm for 10 min. Levels of BUN and creatinine were measured using a Toshiba 120FR NEO chemistry analyzer (Toshiba Co., Japan).

## 549458 (kG*kT*kT*dG*dA*dT*dT*dT*dA*dA*dT*dG*dG*kT*kT*kG) [compound 549458]
[1]; 31.25 nM, HuVEC, ~16 h, Table 6
  percent inhibition of AR: 15%
[1]; 31.25 nM, HuVEC, ~16 h, Table 8
  percent inhibition of AR: 30%
[1]; 31.25 nM, HuVEC, ~16 h, Table 14
  percent inhibition of AR: 0%
[1]; 46.9 nM, HuVEC, ~16 h, Table 15
  percent inhibition of AR: 15%
[1]; 55.6 nM, HuVEC, ~16 h, Table 4
  percent inhibition of AR: 48%
[1]; 62.5 nM, HuVEC, ~16 h, Table 6
  percent inhibition of AR: 25%
[1]; 62.5 nM, HuVEC, ~16 h, Table 8
  percent inhibition of AR: 36%
[1]; 62.5 nM, HuVEC, ~16 h, Table 10
  percent inhibition of AR: 25%
[1]; 62.5 nM, HuVEC, ~16 h, Table 11
  percent inhibition of AR: 16%
[1]; 62.5 nM, HuVEC, ~16 h, Table 12
  percent inhibition of AR: 19%
[1]; 62.5 nM, HuVEC, ~16 h, Table 14
  percent inhibition of AR: 19%
[1]; 125.0 nM, HuVEC, ~16 h, Table 6
  percent inhibition of AR: 47%
[1]; 125.0 nM, HuVEC, ~16 h, Table 8
  percent inhibition of AR: 54%
[1]; 125.0 nM, HuVEC, ~16 h, Table 10
  percent inhibition of AR: 46%
[1]; 125.0 nM, HuVEC, ~16 h, Table 11
  percent inhibition of AR: 22%
[1]; 125.0 nM, HuVEC, ~16 h, Table 12
  percent inhibition of AR: 22%
[1]; 125.0 nM, HuVEC, ~16 h, Table 14
  percent inhibition of AR: 40%
[1]; 166.7 nM, HuVEC, ~16 h, Table 4
  percent inhibition of AR: 84%
[1]; 187.5 nM, HuVEC, ~16 h, Table 15
  percent inhibition of AR: 50%
[1]; 500.0 nM, HuVEC, ~16 h, Table 4
  percent inhibition of AR: 97%
[1]; 500.0 nM, HuVEC, ~16 h, Table 6
  percent inhibition of AR: 88%
[1]; 500.0 nM, HuVEC, ~16 h, Table 8
  percent inhibition of AR: 85%
[1]; 500.0 nM, HuVEC, ~16 h, Table 10
  percent inhibition of AR: 64%
[1]; 500.0 nM, HuVEC, ~16 h, Table 11
  percent inhibition of AR: 64%
[1]; 500.0 nM, HuVEC, ~16 h, Table 12
  percent inhibition of AR: 38%
[1]; 500.0 nM, HuVEC, ~16 h, Table 14
  percent inhibition of AR: 74%
[1]; 750.0 nM, HuVEC, ~16 h, Table 15
  percent inhibition of AR: 85%
[1]; 1000.0 nM, HuVEC, ~16 h, Table 6
  percent inhibition of AR: 93%
[1]; 1000.0 nM, HuVEC, ~16 h, Table 8
  percent inhibition of AR: 90%
[1]; 1000.0 nM, HuVEC, ~16 h, Table 10
  percent inhibition of AR: 78%
[1]; 1000.0 nM, HuVEC, ~16 h, Table 11
  percent inhibition of AR: 74%
[1]; 1000.0 nM, HuVEC, ~16 h, Table 12
  percent inhibition of AR: 71%
[1]; 1000.0 nM, HuVEC, ~16 h, Table 14
  percent inhibition of AR: 90%
[1]; 1500.0 nM, HuVEC, ~16 h, Table 4
  percent inhibition of AR: 98%
[1]; 3000.0 nM, HuVEC, ~16 h, Table 15
  percent inhibition of AR: 96%
[1]; HuVEC cells, electroporation
  IC50: 190 nM
[1]; HuVEC cells, electroporation, 46.9 nM ASO
  inhibition of AR mRNA at 46.9 nM: 15%
[1]; HuVEC cells, electroporation, 187.5 nM ASO
  inhibition of AR mRNA at 187.5 nM: 50%
[1]; HuVEC cells, electroporation, 750.0 nM ASO
  inhibition of AR mRNA at 750.0 nM: 85%
[1]; HuVEC cells, electroporation, 3000.0 nM ASO
  inhibition of AR mRNA at 3000.0 nM: 96%
[1]; HuVEC, ~16 h, Table 4
  IC50: 57 nM
[1]; HuVEC, ~16 h, Table 6
  IC50: 100 nM
[1]; HuVEC, ~16 h, Table 8
  IC50: 100 nM
[1]; HuVEC, ~16 h, Table 10
  IC50: 203 nM
[1]; HuVEC, ~16 h, Table 11
  IC50: 324 nM
[1]; HuVEC, ~16 h, Table 12
  IC50: 470 nM
[1]; HuVEC, ~16 h, Table 14
  IC50: 196 nM
[1]; HuVEC, ~16 h, Table 15
  IC50: 190 nM
[1]; Table 29, 46.9 nM, HuVEC, electroporation, approximately 16 hours
  percent inhibition of AR, 46.9 nM: 21%
[1]; Table 29, 187.5 nM, HuVEC, electroporation, approximately 16 hours
  percent inhibition of AR, 187.5 nM: 72%
[1]; Table 29, 750.0 nM, HuVEC, electroporation, approximately 16 hours
  percent inhibition of AR, 750.0 nM: 91%
[1]; Table 29, 3000.0 nM, HuVEC, electroporation, approximately 16 hours
  percent inhibition of AR, 3000.0 nM: 97%
[1]; Table 29, HuVEC, electroporation, approximately 16 hours
  IC50: 110 nM
[1]; Table 30, 46.9 nM, HuVEC, electroporation, approximately 16 hours
  percent inhibition of AR, 46.9 nM: 22%
[1]; Table 30, 187.5 nM, HuVEC, electroporation, approximately 16 hours
  percent inhibition of AR, 187.5 nM: 62%
[1]; Table 30, 750.0 nM, HuVEC, electroporation, approximately 16 hours
  percent inhibition of AR, 750.0 nM: 92%
[1]; Table 30, 3000.0 nM, HuVEC, electroporation, approximately 16 hours
  percent inhibition of AR, 3000.0 nM: 97%
[1]; Table 30, HuVEC, electroporation, approximately 16 hours
  IC50: 130 nM
[1]; Table 31, 46.9 nM, HuVEC, electroporation, approximately 16 hours
  percent inhibition of AR, 46.9 nM: 24%
[1]; Table 31, 187.5 nM, HuVEC, electroporation, approximately 16 hours
  percent inhibition of AR, 187.5 nM: 59%
[1]; Table 31, 750.0 nM, HuVEC, electroporation, approximately 16 hours
  percent inhibition of AR, 750.0 nM: 92%
[1]; Table 31, 3000.0 nM, HuVEC, electroporation, approximately 16 hours
  percent inhibition of AR, 3000.0 nM: 98%
[1]; Table 31, HuVEC, electroporation, approximately 16 hours
  IC50: 130 nM
[1]; Table 32, 46.9 nM, HuVEC, electroporation, approximately 16 hours
  percent inhibition of AR, 46.9 nM: 19%
[1]; Table 32, 187.5 nM, HuVEC, electroporation, approximately 16 hours
  percent inhibition of AR, 187.5 nM: 58%
[1]; Table 32, 750.0 nM, HuVEC, electroporation, approximately 16 hours
  percent inhibition of AR, 750.0 nM: 89%
[1]; Table 32, 3000.0 nM, HuVEC, electroporation, approximately 16 hours
  percent inhibition of AR, 3000.0 nM: 96%
[1]; Table 32, HuVEC, electroporation, approximately 16 hours
  IC50: 150 nM
[1]; Table 33, 46.9 nM, HuVEC, electroporation, approximately 16 hours
  percent inhibition of AR, 46.9 nM: 21%
[1]; Table 33, 187.5 nM, HuVEC, electroporation, approximately 16 hours
  percent inhibition of AR, 187.5 nM: 61%
[1]; Table 33, 750.0 nM, HuVEC, electroporation, approximately 16 hours
  percent inhibition of AR, 750.0 nM: 90%
[1]; Table 33, 3000.0 nM, HuVEC, electroporation, approximately 16 hours
  percent inhibition of AR, 3000.0 nM: 96%
[1]; Table 33, HuVEC, electroporation, approximately 16 hours
  IC50: 130 nM
[1]; Table 34, 46.9 nM, HuVEC, electroporation, approximately 16 hours
  percent inhibition of AR, 46.9 nM: 14%
[1]; Table 34, 187.5 nM, HuVEC, electroporation, approximately 16 hours
  percent inhibition of AR, 187.5 nM: 53%
[1]; Table 34, 750.0 nM, HuVEC, electroporation, approximately 16 hours
  percent inhibition of AR, 750.0 nM: 84%
[1]; Table 34, 3000.0 nM, HuVEC, electroporation, approximately 16 hours
  percent inhibition of AR, 3000.0 nM: 95%
[1]; Table 34, HuVEC, electroporation, approximately 16 hours
  IC50: 180 nM
[1]; Table 35, 46.9 nM, HuVEC, electroporation, approximately 16 hours
  percent inhibition of AR, 46.9 nM: 13%
[1]; Table 35, 187.5 nM, HuVEC, electroporation, approximately 16 hours
  percent inhibition of AR, 187.5 nM: 49%
[1]; Table 35, 750.0 nM, HuVEC, electroporation, approximately 16 hours
  percent inhibition of AR, 750.0 nM: 84%
[1]; Table 35, 3000.0 nM, HuVEC, electroporation, approximately 16 hours
  percent inhibition of AR, 3000.0 nM: 91%
[1]; Table 35, HuVEC, electroporation, approximately 16 hours
  IC50: 190 nM
[1]; Table 36, 46.9 nM, HuVEC, electroporation, approximately 16 hours
  percent inhibition of AR, 46.9 nM: 1%
[1]; Table 36, 187.5 nM, HuVEC, electroporation, approximately 16 hours
  percent inhibition of AR, 187.5 nM: 51%
[1]; Table 36, 750.0 nM, HuVEC, electroporation, approximately 16 hours
  percent inhibition of AR, 750.0 nM: 83%
[1]; Table 36, 3000.0 nM, HuVEC, electroporation, approximately 16 hours
  percent inhibition of AR, 3000.0 nM: 96%
[1]; Table 36, HuVEC, electroporation, approximately 16 hours
  IC50: 230 nM
[2]; 0.02 μM
  Percent inhibition of AR mRNA: 4%
[2]; 0.1 μM
  Percent inhibition of AR mRNA: 14%
[2]; 0.5 μM
  Percent inhibition of AR mRNA: 67%
[2]; 10 μM
  Percent inhibition of AR mRNA: 89%

## GTTGATTTAATGGTTG (all phosphorothioate, sugars by position not given here; further chemistry not fully specified) [ISIS 549458]
[3]; free uptake 0.04-5.00 μM
  AR mRNA expression: inhibited AR mRNA expression more potently than ISIS 554221
[3]; dose 0.04 μM
  Percent inhibition of AR full-length mRNA: 16%
[3]; dose 0.20 μM
  Percent inhibition of AR full-length mRNA: 48%
[3]; dose 1.00 μM
  Percent inhibition of AR full-length mRNA: 80%
[3]; dose 5.00 μM
  Percent inhibition of AR full-length mRNA: 86%
[4]; dose 0.04 μM
  Percent inhibition of cell proliferation: 7%
[4]; dose 0.20 μM
  Percent inhibition of cell proliferation: 31%
[4]; dose 1.00 μM
  Percent inhibition of cell proliferation: 45%
[4]; dose 5.00 μM
  Percent inhibition of cell proliferation: 41%

## TGATTTAATGGTTGCA [ISIS 569236] (cEt/MOE gapmer chemistry, further chemistry not given here) [targets intron 1]
[5]
  AR RNA expression inhibited compared to the control group: 19%

## TTGATTTAATGGTTGC [ISIS 560131] (MOE and (S)-cEt gapmer chemistry, further chemistry not given here)
[5]
  AR RNA expression inhibited compared to the control group: 35%
[6]
  tolerability: hematology: well tolerated in terms of the hematology of the monkeys
[7]
  tolerability: kidney function: well tolerated in terms of the kidney function of the monkeys
